According to ChEMBL document CHEMBL5260848, “Recent advancements in the development of bioactive pyrazoline derivatives” (Eur J Med Chem, 2020):
pIC50, pKi: −log10 of the molar value. ≈ marks a conversion by molar mass, not a printed value. Where a name gives a salt, the structure may show the parent alone. Each block holds one compound with its values, some of them ahead of it.

Experiments:
Acetylcholinesterase = Acetylcholinesterase (Homo sapiens, UniProt P22303)
Staphylococcus aureus [1] = test: microbe, parasite or virus in culture
MCF7 = test: Cytotoxicity against human MCF7 cells; assay type: functional, cell-based
Mus musculus = test: Antidiabetic activity against albino mouse assessed as reduction in blood glucose level at 0.2 mmol/Kg relative to control; assay type: functional; set-up: scale not given: the % may be the effect or the level left
Candida albicans [2] = test: Antifungal activity against Candida albicans by agar dilution method; assay type: functional
[3] = Antioxidant activity assessed as DPPH radical scavenging activity; assay type: functional
Carbonic anhydrase 1 = Carbonic anhydrase 1 (Homo sapiens, UniProt P00915)
Carbonic anhydrase 9 = Carbonic anhydrase 9 (Homo sapiens, UniProt Q16790); test: Inhibition of human CA9
Carbonic anhydrase 12 = Carbonic anhydrase 12 (Homo sapiens, UniProt O43570); test: Inhibition of human CA12
Carbonic anhydrase 2 = Carbonic anhydrase 2 (Homo sapiens, UniProt P00918)
Aspergillus clavatus = test: Antifungal activity against Aspergillus clavatus; assay type: functional
Candida albicans [4] = test: Antifungal activity against Candida albicans; assay type: functional
Aspergillus niger = test: Antifungal activity against Aspergillus niger; assay type: functional
[5] = Cytotoxicity against human Panel NCI-58 (58 carcinoma cell lines) cells; assay type: functional
Escherichia coli = test: Antibacterial activity against Escherichia coli by agar dilution method; assay type: functional
Pseudomonas aeruginosa = test: Antibacterial activity against Pseudomonas aeruginosa by agar dilution method; assay type: functional
Staphylococcus aureus [6] = test: Antibacterial activity against Staphylococcus aureus by agar dilution method; assay type: functional
Bacillus subtilis = test: Antibacterial activity against Bacillus subtilis by agar dilution method; assay type: functional
[7] = Growth inhibition of human Panel NCI-58 (58 carcinoma cell lines) cells by SRB method; assay type: functional
[8] = Cytotoxicity against human Panel NCI-58 (58 carcinoma cell lines) cells by SRB method; assay type: functional; details: read-out: LC50 (the source's name)
Candida albicans [9] = test: Antifungal activity against Candida albicans assessed as reduction in microbial growth; assay type: functional
Cryptococcus neoformans = test: Antifungal activity against Cryptococcus neoformans assessed as reduction in microbial growth; assay type: functional

Carbonic anhydrase 1, sequence (P00915 whole entry): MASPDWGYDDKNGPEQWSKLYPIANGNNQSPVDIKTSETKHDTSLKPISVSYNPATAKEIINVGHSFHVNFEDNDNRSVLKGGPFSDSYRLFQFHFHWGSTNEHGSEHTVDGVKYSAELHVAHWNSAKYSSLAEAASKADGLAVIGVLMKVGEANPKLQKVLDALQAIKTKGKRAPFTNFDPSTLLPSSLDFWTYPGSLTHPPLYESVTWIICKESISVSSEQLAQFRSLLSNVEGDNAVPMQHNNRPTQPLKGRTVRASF
Acetylcholinesterase, sequence (P22303 whole entry): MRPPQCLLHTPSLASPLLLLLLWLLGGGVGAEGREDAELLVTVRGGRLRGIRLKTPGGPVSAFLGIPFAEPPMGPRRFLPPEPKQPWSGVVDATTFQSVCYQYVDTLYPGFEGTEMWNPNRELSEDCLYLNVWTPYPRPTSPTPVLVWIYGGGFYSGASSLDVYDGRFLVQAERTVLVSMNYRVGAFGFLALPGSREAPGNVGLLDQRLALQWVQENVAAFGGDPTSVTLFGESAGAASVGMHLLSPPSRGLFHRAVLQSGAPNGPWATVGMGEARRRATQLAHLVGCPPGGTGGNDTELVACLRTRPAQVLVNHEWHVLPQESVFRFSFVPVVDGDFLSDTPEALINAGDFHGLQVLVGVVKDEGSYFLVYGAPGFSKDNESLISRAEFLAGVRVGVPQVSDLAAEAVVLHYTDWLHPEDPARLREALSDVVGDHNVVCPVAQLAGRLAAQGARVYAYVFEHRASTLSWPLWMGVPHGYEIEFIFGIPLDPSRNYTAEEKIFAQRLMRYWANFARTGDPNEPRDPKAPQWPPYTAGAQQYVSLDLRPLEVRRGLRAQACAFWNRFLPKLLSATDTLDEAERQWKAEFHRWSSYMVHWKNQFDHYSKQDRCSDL
Carbonic anhydrase 12, sequence (O43570 whole entry): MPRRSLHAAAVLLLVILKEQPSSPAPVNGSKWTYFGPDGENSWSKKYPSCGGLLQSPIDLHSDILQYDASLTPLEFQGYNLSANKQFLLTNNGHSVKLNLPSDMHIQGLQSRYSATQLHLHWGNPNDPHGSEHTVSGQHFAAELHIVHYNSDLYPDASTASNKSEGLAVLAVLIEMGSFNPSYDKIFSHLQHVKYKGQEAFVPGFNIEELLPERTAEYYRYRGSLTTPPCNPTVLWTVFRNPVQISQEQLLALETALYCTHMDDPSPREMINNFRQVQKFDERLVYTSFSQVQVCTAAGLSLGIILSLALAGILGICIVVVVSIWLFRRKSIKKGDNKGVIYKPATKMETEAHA

SMILES: COc1ccc(C2CC(c3ccc(F)cc3)=NN2c2ccc(S(N)(=O)=O)cc2)cc1OC (stereo not given)
pKi (Acetylcholinesterase): 7.42

SMILES: CN1N=C2C(C[C@H]3[C@@H]4CCc5cc(O)ccc5[C@H]4CC[C@]23C)C1c1ccc(Br)cc1 (stereo not given in full)
pIC50 (MCF7): 7.37

SMILES: O=C(Nc1ccccc1)NS(=O)(=O)c1ccc(N2N=C(c3ccc(Br)cc3)CC2c2ccc(F)cc2)cc1 (stereo not given)
Activity (Mus musculus): 16%

SMILES: Cc1ccc2cc(C3CC(c4cc(Br)ccc4O)=NN3)c3nnnn3c2c1 (stereo not given)
MIC (Candida albicans [2]): 25 µg/mL (≈ 59.1 µM)

SMILES: CN1N=C2C(C[C@H]3[C@@H]4CCc5cc(O)ccc5[C@H]4CC[C@]23C)C1c1cccs1 (stereo not given in full)
pIC50 (MCF7): 7.37

SMILES: C[C@]12CC[C@@H]3c4ccc(O)cc4CC[C@H]3[C@@H]1CC1C2=NN(c2ccccc2)C1c1cccs1 (stereo not given in full)
pIC50 (MCF7): 7.37

SMILES: O=C(c1ccncc1)N1N=C(c2ccccc2Cl)CC1c1cc2ccccc2nc1Cl (stereo not given)
MIC (Aspergillus clavatus): 12.5 µg/mL (≈ 27.9 µM)
MIC (Candida albicans [4]): 12.5 µg/mL (≈ 27.9 µM)
MIC (Aspergillus niger): 12.5 µg/mL (≈ 27.9 µM)

SMILES: COc1cccc2c1C(=O)c1c(O)c3c(c(O)c1C2=O)C[C@@](O)(C(=O)CO)C[C@@H]3O[C@H]1C[C@H](N)[C@H](O)[C@H](C)O1 [DOXORUBICIN HYDROCHLORIDE]
GI50 [5]: 20 nM

SMILES: O=C(Nc1ccc(Cl)cc1)NS(=O)(=O)c1ccc(N2N=C(c3ccc(Br)cc3)CC2c2ccc(F)cc2)cc1 (stereo not given)
Activity (Mus musculus): 16%

SMILES: OCCNc1nc(NCCO)nc(Nc2ccc(C3=NN(c4cc(Cl)cc(Cl)c4)C(c4ccc(Cl)cc4)C3)cc2)n1 (stereo not given)
GI50 [7]: 569 nM
CC50 [8]: 5150 nM

SMILES: COc1cc(C2CC(c3ccc(Nc4nc(NCCO)nc(NCCO)n4)cc3)=NN2c2cc(Cl)cc(Cl)c2)cc(OC)c1OC (stereo not given)
GI50 [7]: 569 nM
CC50 [8]: 5150 nM

SMILES: COc1ccc(C2CC(c3ccc(Cl)cc3)=NN2c2ccc(S(N)(=O)=O)cc2)c(OC)c1 (stereo not given)
pKi (Acetylcholinesterase): 7.42

SMILES: C[C@]12CC[C@@H]3c4ccc(O)cc4CC[C@H]3[C@@H]1CC1C2=NN(c2ccccc2)C1c1ccc(Br)cc1 (stereo not given in full)
pIC50 (MCF7): 7.37

More lines, main results first:

MIC (Staphylococcus aureus [1]): 3.9 µg/mL (≈ 7.08 µM)
SMILES: COC(=O)C1N=NN(CC(=O)N2N=C(c3nnn(Cc4ccccc4)c3C)CC2c2cccs2)C1C(=O)OC (stereo not given)

IC50 [3]: 26.5 µg/mL (≈ 60.2 µM)
SMILES: COc1ccc2c(c1)cc(C1CC(c3cc(Br)ccc3O)=NO1)c1nnnn12 (stereo not given)

MIC (Staphylococcus aureus [1]): 3.9 µg/mL (≈ 8.13 µM)
SMILES: COC(=O)C1N=NN(CC(=O)N2N=C(c3ccccc3)CC2c2ccc(OC)cc2)C1C(=O)OC (stereo not given)

pKi (Carbonic anhydrase 1): 7.06
pKi (Carbonic anhydrase 9): 8.26
pKi (Carbonic anhydrase 12): 8.15
pKi (Carbonic anhydrase 2): 7.50
SMILES: NS(=O)(=O)c1ccc(C(=O)N2N=C(c3ccc(F)cc3)CC2c2ccc(F)cc2)cc1 (stereo not given)

MIC (Staphylococcus aureus [1]): 3.9 µg/mL (≈ 6.79 µM)
SMILES: COC(=O)C1N=NN(CC(=O)N2N=C(c3nnn(Cc4ccccc4)c3C)CC2c2ccc(OC)cc2)C1C(=O)OC (stereo not given)

MIC (Escherichia coli): 25 µg/mL (≈ 60.9 µM)
MIC (Pseudomonas aeruginosa): 25 µg/mL (≈ 60.9 µM)
MIC (Staphylococcus aureus [6]): 25 µg/mL (≈ 60.9 µM)
MIC (Bacillus subtilis): 25 µg/mL (≈ 60.9 µM)
SMILES: Oc1ccc(Br)cc1C1=NOC(c2cc3ccccc3n3nnnc23)C1 (stereo not given)

MIC (Aspergillus clavatus): 12.5 µg/mL (≈ 27.3 µM)
MIC (Candida albicans [4]): 12.5 µg/mL (≈ 27.3 µM)
MIC (Aspergillus niger): 12.5 µg/mL (≈ 27.3 µM)
SMILES: O=C(c1ccncc1)N1N=C(c2cccc([N+](=O)[O-])c2)CC1c1cc2ccccc2nc1Cl (stereo not given)

MIC (Aspergillus clavatus): 50 µg/mL (≈ 102 µM)
MIC (Candida albicans [4]): 12.5 µg/mL (≈ 25.4 µM)
MIC (Aspergillus niger): 12.5 µg/mL (≈ 25.4 µM)
SMILES: O=C(c1ccncc1)N1N=C(c2ccc(Br)cc2)CC1c1cc2ccccc2nc1Cl (stereo not given)

pKi (Carbonic anhydrase 1): 7.06
pKi (Carbonic anhydrase 9): 8.26
pKi (Carbonic anhydrase 12): 8.15
pKi (Carbonic anhydrase 2): 7.50
SMILES: COc1ccc(C2=NN(C(=O)c3ccc(S(N)(=O)=O)cc3)C(c3ccccc3)C2)c(OC)c1 (stereo not given)

pKi (Carbonic anhydrase 1): 7.06
pKi (Carbonic anhydrase 9): 8.26
pKi (Carbonic anhydrase 2): 7.50
SMILES: NS(=O)(=O)c1ccc(C(=O)N2N=C(c3ccccc3)CC2c2ccc(Cl)cc2)cc1 (stereo not given)

MIC50 (Candida albicans [9]): 3.9 µg/mL
MIC50 (Cryptococcus neoformans): 3.9 µg/mL
SMILES: COc1cc(C2CC(c3ccc(Nc4ccnc5cc(Cl)ccc45)cc3)=NN2c2ccc(Cl)cc2)cc(OC)c1OC (stereo not given)
GI50 [5]: < 1000 nM
